In patent US7160903B2, “Sulfonylaminocarboxylic acids” (Sanofi-Aventis Deutschland GmbH, priority 1997, dated 2007) one finds IC50 and melting point data, which are given here for 30 molecules.

Each structure is given as a SMILES string.

The target of series [1] is T1, stromelysin (MMP-3) (Homo sapiens, UniProt P08254).
T1 construct: enzymatic activity of the catalytic domains of human stromelysin and of neutrophil collagenase; made in house
The experiment in a line: Enzymatic activity of the catalytic domain of human stromelysin (fluorogenic substrate). Type of series: biochemical. Particulars: pH=6.5, 15 min preincubation, fluorescence 328 nm (ex)/393 nm (em). On the procedure: (§1) Preparation and determination of the enzymatic activity of the catalytic domains of human stromelysin and of neutrophil collagenase:
(§2) The enzymes stromelysin (MMP-3) and neutrophil collagenase (MMP-8) were prepared according to Ye et al. (Biochemistry; 31 (1992) pages 11231–11235). To measure the enzyme activity or the enzyme inhibitor action, 70 μl of buffer solution and 10 μl of enzyme solution are incubated for 15 min with 10 μl of a 10% strength (v/v) aqueous dimethyl sulfoxide solution, which optionally contains the enzyme inhibitor. After addition of 10 μl of a 10% strength (v/v) aqueous dimethyl sulfoxide solution which contains 1 mmol/L of the substrate, the enzyme reaction is monitored by fluorescence spectroscopy (328 nm (ex)/393 nm(em)). The enzyme activity is shown as the extinction increase/min. The IC50 values listed in Table 2 are determined as those inhibitor concentrations which in each case led to a 50% inhibition of the enzyme.
(§3) The buffer solution contains 0.05% Brij (Sigma, Deisenhofen, Germany) and also 0.1 mol/L Tris/HCl, 0.1 mol/L NaCl, 0.01 mol/L CaCl2 and 0.1 mol/L piperazine-N,N′-bis[2-ethanesulfonic acid] (pH=6.5). The enzyme solution contains 5 μg/ml of one of the enzyme domains prepared according to Ye et al. The substrate solution contains 1 mmol/L of the fluorogenic substrate (7-methoxycoumarin-4-yl)acetyl-Pro-Leu-Gly-Leu-3-(2′,4′-dinitrophenyl)-L-2,3-diaminopropionyl-Ala-Arg-NH2 (Bachem, Heidelberg, Germany).

Series [2] addresses T2, neutrophil collagenase (MMP-8) (Homo sapiens, UniProt P22894).
T2 construct: enzymatic activity of the catalytic domains of human stromelysin and of neutrophil collagenase; made in house
The experiment in a line: Enzymatic activity of the catalytic domain of neutrophil collagenase (fluorogenic substrate). Type of series: biochemical. Conditions: pH=6.5, 15 min preincubation, fluorescence 328 nm (ex)/393 nm (em), read-out: Neutr. collagenase IC50. As for the experimental part:
as §1, §2, §3

T2 sequence (P22894 100-262 limits assumed): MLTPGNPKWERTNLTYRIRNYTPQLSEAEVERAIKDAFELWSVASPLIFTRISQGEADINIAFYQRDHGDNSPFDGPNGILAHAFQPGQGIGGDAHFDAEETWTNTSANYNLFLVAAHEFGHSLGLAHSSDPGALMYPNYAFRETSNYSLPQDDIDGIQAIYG
T1 sequence (P08254 100-272 limits assumed): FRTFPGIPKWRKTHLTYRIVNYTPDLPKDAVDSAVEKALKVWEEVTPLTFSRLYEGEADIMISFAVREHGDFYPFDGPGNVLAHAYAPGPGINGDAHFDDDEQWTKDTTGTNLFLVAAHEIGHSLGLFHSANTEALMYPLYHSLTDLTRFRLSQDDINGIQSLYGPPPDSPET

For the molecule `O=C(O)C(Cc1c[nH]c2ccc(F)cc12)NS(=O)(=O)c1ccc(-c2ccc(N3CCCC3)cc2)cc1` (racemic) [Example 78], the melting point (in general, the temperature of the solid-liquid transition) is > 230 °C (dec.). Besides, the 50% inhibitory concentration (IC50) (as a rule, the concentration at which inhibition is half-maximal) in series [1] stood at 20 nM. Further, in series [2], the IC50 came to 2 nM.
In turn, `CN(C)c1ccc(-c2ccc(S(=O)(=O)N[C@H](Cc3c[nH]c4ccccc34)C(=O)O)cc2)cc1` [Example 66] came in with a melting point of 258 to 260 °C. The same molecule yielded an IC50 in series [1] of 20 nM. Also, the IC50 in series [2] was 2 nM.
For the molecule `O=C(O)[C@@H](Cc1cccs1)NS(=O)(=O)c1ccc(-c2ccc(Cl)cc2)cc1` [Example 27], the melting point is > 200 °C (dec.). The molecule also yielded an IC50 in series [1] of 200 nM. For the same molecule, the IC50 in series [2] was determined as 10 nM.
For the molecule `CN(C)c1ccc(-c2ccc(S(=O)(=O)N[C@@H](CCC(=O)O)C(=O)O)cc2)cc1` [Example 70], the melting point was > 108 °C (dec.). Also, the IC50 in series [1] worked out at 100 nM. The IC50 in series [2] came to 3 nM.
In turn, `O=C(O)CCCC(NS(=O)(=O)c1ccc(-c2ccccc2)cc1)C(=O)O` (racemic) [Example 82] displayed a melting point of 171.5 to 172 °C. The IC50 in series [1] was 100 nM. Also, in series [2], the concentration for half-maximal inhibition (IC50) amounted to 10 nM.
As to `CSCC[C@H](NC(=O)CC[C@H](NS(=O)(=O)c1ccc(-c2ccccc2)cc1)C(=O)O)C(=O)O` [Example 58], the melting point lay in the range of 159 to 161 °C. Besides, in series [1], the IC50 turned out to be 40 nM. Further, in series [2], the IC50 amounted to 6 nM.
In turn, `O=C(O)CC[C@@H](NS(=O)(=O)c1ccc(-c2ccccc2)cc1)C(=O)O` [Example 61] returned a melting point of 155 to 158 °C. This molecule also displayed an IC50 in series [1] of 400 nM. For the same molecule, the IC50 in series [2] came to 20 nM.
In the same order, the values of `O=C(O)[C@@H](Cc1c[nH]c2ccccc12)NS(=O)(=O)c1ccc(-n2nccn2)cc1` [Example 68] are 131 to 134 °C, 400 nM and 100 nM.
On the same counts, the results for `O=C(O)[C@H](CO)NS(=O)(=O)c1ccc(Oc2ccccc2)cc1` [Example 8] are 202 to 203 °C, 300 nM and 10 nM.
In the case of `COc1ccc(CC(NS(=O)(=O)c2ccc(-c3ccc(N(C)C)cc3)cc2)C(=O)O)cc1OC` (racemic) [Example 65], the melting point is > 230 °C (dec.). Half-maximal inhibition in series [1] (IC50) required 100 nM. The half-inhibitory concentration (IC50) in series [2] is 3 nM.
As to `O=C(O)[C@H](CCc1nc2ccccc2[nH]1)NS(=O)(=O)c1ccc(-c2ccccc2)cc1` [Example 93], the melting point was > 250 °C (dec.). Also, in series [1], the concentration for half-maximal inhibition (IC50) worked out at 200 nM. The 50% inhibitory concentration (IC50) in series [2] was determined as 20 nM.
On the same counts, the results for `COc1ccc(NC(=O)CC[C@H](NS(=O)(=O)c2ccc(-c3ccccc3)cc2)C(=O)O)cc1` [Example 89] are 219 to 221 °C, 300 nM and 20 nM.
As to `O=C(O)CC[C@H](NS(=O)(=O)c1ccc(-c2ccccc2)cc1)C(=O)O` [Example 60], the melting point was 145 to 146 °C. In series [1], the concentration for half-maximal inhibition (IC50) came out at 600 nM. Also, in series [2], the half-inhibitory concentration (IC50) amounted to 20 nM.
Molecule `N#Cc1ccc(NC(=O)CC[C@H](NS(=O)(=O)c2ccc(-c3ccccc3)cc2)C(=O)O)cc1` [Example 86] had a melting point of 220 °C. In series [1], this molecule gave a 50% inhibitory concentration (IC50) of 300 nM. In series [2], the 50% inhibitory concentration (IC50) is 10 nM.
The molecule `CC(C)C[C@H](NC(=O)CC[C@H](NS(=O)(=O)c1ccc(-c2ccccc2)cc1)C(=O)O)C(=O)O` [Example 56] returned a melting point of 93 to 95 °C. In addition, in series [1], it took 30 nM to reach half-maximal inhibition (IC50). For the same molecule, in series [2], the IC50 turned out to be 5 nM.
With `NC(=O)CC[C@H](NC(=O)CC[C@H](NS(=O)(=O)c1ccc(-c2ccccc2)cc1)C(=O)O)C(=O)O` [Example 95], the melting point is > 110 °C (dec.). The molecule further yielded a half-maximal inhibitory concentration (IC50) in series [1] of 300 nM. The 50% inhibitory concentration (IC50) in series [2] worked out at 20 nM.
Consider `O=C(CC[C@H](NS(=O)(=O)c1ccc(-c2ccccc2)cc1)C(=O)O)Nc1ccccc1` [Example 79], for which the melting point lay within 234.5 to 235.5 °C. The same molecule showed an IC50 in series [1] of 20 nM. Moreover, in series [2], the 50% inhibitory concentration (IC50) worked out at 4 nM.
Molecule `O=C(O)[C@@H](NS(=O)(=O)c1ccc(Oc2ccccc2)cc1)[C@@H](O)c1ccc2c(c1)OCO2` (racemic) [Example 35] returned a melting point of 176 °C. In addition, in series [1], the IC50 was 100 nM. The IC50 in series [2] is 10 nM.
On the same counts, the results for `CCN(C(=O)CC[C@H](NS(=O)(=O)c1ccc(-c2ccccc2)cc1)C(=O)O)c1ccccc1` [Example 98] are > 155 °C (dec.), 400 nM and 30 nM.
For the molecule `O=C(O)[C@@H](Cc1c[nH]c2ccccc12)NS(=O)(=O)c1ccc(-c2ccc(N3CCCC3)cc2)cc1` [Example 71], the melting point is > 145 °C (dec.). Further, the IC50 in series [1] was found to be 10 nM. In addition, the IC50 in series [2] was found to be 2 nM.
`O=C(CC[C@H](NS(=O)(=O)c1ccc(-c2ccccc2)cc1)C(=O)O)N[C@@H](Cc1ccccc1)C(=O)O` [Example 92] came in with a melting point of 123.5 to 124.5 °C. In series [1], this molecule came in with an IC50 of 30 nM. Moreover, in series [2], the concentration for half-maximal inhibition (IC50) turned out to be 4 nM.
As to `O=C(O)C1CCCCN1S(=O)(=O)c1ccc(-n2nccn2)cc1` (racemic) [Example 63], the melting point fell in the range of 195 to 196 °C. For the same molecule, the IC50 in series [1] was 3000 nM. Moreover, the concentration for half-maximal inhibition (IC50) in series [2] came to 600 nM.
On to `CSCC[C@@H](NS(=O)(=O)c1ccc(-n2nccn2)cc1)C(=O)O` [Example 67], for which the melting point lay within 155.5 to 156.5 °C. In series [1], half-maximal inhibition (IC50) was put at 1000 nM. In addition, the IC50 in series [2] was determined as 200 nM.
In the same order, the values of `O=C(O)C1CCCCN1S(=O)(=O)c1ccc(-c2ccccc2)cc1` (racemic) [Example 55] are 174.5 to 175.5 °C, 800 nM and 40 nM.
On the same counts, the results for `O=C(CC[C@H](NS(=O)(=O)c1ccc(-c2ccccc2)cc1)C(=O)O)Nc1ccc(F)cc1` [Example 91] are > 258 °C (dec.), 300 nM and 10 nM.
For the molecule `COC(=O)c1ccc(NC(=O)CC[C@H](NS(=O)(=O)c2ccc(-c3ccccc3)cc2)C(=O)O)cc1` [Example 84], the melting point lay in the range of 245 to 245.5 °C. In addition, in series [1], inhibition was half-maximal at 5000 nM (IC50). Further, the half-maximal inhibitory concentration (IC50) in series [2] turned out to be 2 nM.
Take `Br.CN(C)c1ccc(-c2ccc(S(=O)(=O)N[C@@H](CC(=O)O)C(=O)O)cc2)cc1` [Example 40]: the melting point fell in the range of 121 to 127 °C. The molecule also yielded a concentration for half-maximal inhibition (IC50) in series [1] of 70 nM. In addition, the concentration for half-maximal inhibition (IC50) in series [2] turned out to be 2 nM.
Turning to `O=C(CCC(NS(=O)(=O)c1ccc(-c2ccc(Cl)cc2)cc1)C(=O)O)Nc1ccccc1` (racemic) [Example 69], the melting point lay in the range of 238 to 239 °C. The same molecule gave an IC50 in series [1] of 10 nM. Moreover, the half-maximal inhibitory concentration (IC50) in series [2] was found to be 4 nM.
On the same counts, the results for `O=C(O)CC[C@H](NS(=O)(=O)c1ccc(-c2ccc(N3CCCC3)cc2)cc1)C(=O)O` [Example 77] are > 220 °C (dec.), 4 nM and 4 nM.
In the case of `O=C(CCC(NS(=O)(=O)c1ccc(-c2ccc(N3CCCC3)cc2)cc1)C(=O)O)Nc1ccccc1` (racemic) [Example 76], the melting point was 234 to 236 °C (dec.). Besides, 5 nM corresponded to half-maximal inhibition in series [1] (IC50). For the same molecule, the IC50 in series [2] was 3 nM.
